Laboratory results published in the pKa sets of Baltruschat and Czodrowski (2020).

Conditions: acidic group

Compound	pKa
CC1(C)S[C@H]2C(C(=O)[O-])[NH+]=C(CCCC([NH3+])C(=O)[O-])N2C1C(=O)O (stereo partly specified)	3.1
O=[N+]([O-])c1cc(-c2ccccc2)ccc1O	6.73
Oc1ccc2ncncc2c1	8.19
CC(=O)N1CS(=O)(=O)C[C@H]1C(=O)O	2.23
Nc1ccc(S(=O)(=O)Nc2ccn(-c3ccccc3[N+](=O)[O-])n2)cc1	7
O=[N+]([O-])c1ccc(S(=O)(=O)Nc2ccccc2)cc1	7.41
C=Cc1ccc(O)cc1	9.91
CCCC(C(CC)CO)C(CC)C(=O)O (stereo unspecified)	4.78
CC(=N\O)/C(CO)=N/O	10.1
CCc1nnc(CC)n1N	9.77
O=C1CCc2cc(Cl)c([N+](=O)[O-])cc2C1	11.3
O=C([O-])[C@@H]1CC[C@@H](C(=O)O)[Se]1	4.35
Cc1ccc(/C=C/C(=O)O)cc1	4.56
CCN(CC)C(=S)NC(=O)c1ccccc1	8.45
O=C(O)/C=C/c1ccoc1	4.31
CC(=O)c1ccc(O)c(O)c1	7.8
COc1ccc(C(=O)O[C@H]2O[C@@H](C(=O)O)[C@H](O)[C@@H](O)[C@@H]2O)cc1OC	3.47
O=C(O)CCc1ccco1	4.36
O=C(O)C(c1ccc(-c2ccccc2)cc1)C(O)C1CCCCC1 (stereo unspecified)	4.19
CC(C[Si](C)(C)CCl)C(=O)O (stereo unspecified)	5.32
O=S(=O)(Cc1ccccc1)c1ncn[nH]1	6.23
CC(=O)[n+]1ccc(N)cc1	9.15
Cc1ccc(S(=O)(=O)NCC[NH+](CC(=O)O)CC(=O)O)cc1	2.15
COc1cccc([N+](=O)[O-])c1O	6.74
CC(C)(C)c1cc(/C=C/C(=O)[O-])cc(C(C)(C)C)c1O	11.1

Compound	pKa
CC(=O)C(C)C(C)=O	10.8
CO[C@H]1C[C@@H]1C(=O)O	4.47
CCC#CC#CC#CC(=O)O	1.67
Cc1ccc2[nH]c(CO)nc2c1	11.5
SCCNc1ccccc1	9.5
O=[N+]([O-])c1cc[n+](O)cc1	-1.7
COc1cc(C)ccc1C(=O)O	4.38
O=C(O)[C@@H]1CC[C@H](C(=O)O)S1	3.34
Oc1nc([S-])nc2nc[nH]c12	10.3
CCCCS(=O)O	2.2
[NH3+]C[C@H](O)C(=O)O	2.78
CC(=O)c1ccc([N+](=O)[O-])cc1C(=O)O	3.27
CC(=O)C(Cc1ccc(Cl)cc1)C(C)=O	10.2
O=C1C=Cc2ccccc2/C1=N\O	7.77
O=C([O-])c1cc([N+](=O)[O-])ccc1O	10.1
CCOC(=O)/C(=N\O)C(C)=O	7.2
Nc1ccc(C(=O)O)cc1	4.84
Cc1cc(C(=O)O)ccc1[N+](=O)[O-]	3.65
CC(=O)CC(=O)Nc1ccccc1	9.94
CCCCCCCCCCc1c(-c2ccccc2)nn(-c2ccccc2)c1O	6.7
O=[N+]([O-])c1cccc2c[n+](CCO)ccc12	11.7
ON=C(c1ccccc1)c1ccccc1	11.3
CCOC(=O)COc1ccc(S(=O)(=O)c2ccc(O)c(C[NH3+])c2)c(Cl)c1Cl	6.67
Nc1cc2ccccc2cc1O	9.35
C[n+]1ccc2ccccc2c1S	-2.13

Compound	pKa
O=C(O)[C@@H]1C[C@@H]1c1ccccc1	4.82
Fc1ccc(S)cc1	6.35
Cc1nc2ccccc2[nH+]c1O	0.48
COc1nc(N)c2[nH]cnc2n1	10
Brc1cccc(-c2nnn[nH]2)c1	3.82
O=S(O)Cc1ccccc1	1.86
CC(C)(S)[C@@H](C(=O)O)n1cc[nH+]c1Cc1ccccc1	2.81
O=C(O)Cn1cccc1	3.3
Cn1c[nH+]cc1C[C@H](NC(=O)CC[NH3+])C(=O)O	2.64
O=C(O)CCc1ccccc1	4.59
Cc1ccc(C(C)C)cc1O	10.3
OCCCl	14.4
COc1ccc(C(=S)Nc2ccc(Cl)cc2)cc1	10.9
C[n+]1ccc(-c2nc3ccccc3[nH]2)cc1	8.89
CCC/C=C(/C)C(=O)O	4.44
CC1(C)CC=CC(=O)C1	12.4
Cc1cc(Nc2ccc([O-])cc2)c(C(C)C)cc1O	10.7
CC[C@@H]1OC(=O)[C@@H](C)[C@H](O)[C@@H](C)[C@H](O[C@H]2O[C@@H](C)C[C@@H]([N+](C)(C)O)[C@@H]2O)[C@]2(C)C[C@H](C)C3(O[C@]1(C)C=C3C)O2	4.3
COc1ccc(C(=O)S)cc1	2.79
N#CC(C#N)=NNc1ccccc1C(=O)O	6.7
C[Si](C)(CCl)CCCC(=O)O	4.97
C[C@@]12CC(=O)N[C@]1(CCC(=O)[O-])C(=O)NC2=O	8.1
CCOC(=O)/C=C(/C)O	9.51
O=C(O)C(CO)c1ccccc1 (stereo unspecified)	4.23

Same assay, conditions: basic group

Compound	pKa
Cc1ccc(N)cc1CN	9.33
Oc1ccc2ncncc2c1	3.12
CC(=O)OCCc1c[nH]cn1	6.97
CCC(C)(C)N(C)C(C)(C)C	11.9
CCN(CC)C(C)C=C(c1cccs1)c1cccs1 (stereo unspecified)	8.9
CN([NH3+])C(N)=S	1.2
Nc1ccc2c(c1)-c1c(ccc3ccccc13)C2	4.67
[NH3+][C@@H](Cc1nc[nH]c1I)C(=O)[O-]	4.18
Nc1ncc(Br)s1	3.61
Cc1c(Br)cc(N)cc1Br	2.87
OCCCNc1nc(NCCCO)nc(NCCCO)n1	5.48
CSc1ccccn1	3.62
O=C([O-])c1ccc2nc3ccccc3cc2c1	5.22
COC(=O)C1=CCCNC1	8.7
Cc1c[nH]c(C)n1	8.39
CCN(CC)CCOCCN(CC)CC	10.1
NNC=O	2.81
CCN(C)CCOCCN(CC)CC	10.1
C[N-]C(=O)Oc1ccc2c(c1)[C@@]1(C)CCN(C)[C@H]1N2C	12.2
C1CCN2CCCCN2C1	6.79
NCC(O)c1ccccc1 (stereo unspecified)	8.94
CC(=O)n1ccnc1C	5.03
NCCCC[NH2+]CCCN	9.86
CC[NH+](C)CCOCCN(C)C	7.96
O=[N+]([O-])c1ccc2[nH]c(-c3ccco3)nc2c1	2.64

Compound	pKa
CCCCN1CCCC1C (stereo unspecified)	10.7
Cn1ccc(=O)cc1	3.33
C#CCN(C)C	7.05
CC(C)N(CCc1ccccc1)CCc1ccccc1	10
OCCCc1ccncc1	5.9
c1ccc(-c2cc(-c3ccccc3)c(NCC[NH+]3CCOCC3)nn2)cc1	3.36
CC(=O)c1ccccc1N	2.31
CNCC(O)c1ccccc1 (stereo unspecified)	9.31
CCCNCC[NH2+]CCC	7.53
C[C@]1(O)CCCC[C@@H]1N	9.49
Cc1ccc2[nH]c(CO)nc2c1	5.64
CC(C)/[NH+]=C/N(C)c1ccc(-c2c[nH]cn2)cc1	5.25
SCCNc1ccccc1	3.78
CN(C(=O)c1ccccc1)c1cccnc1	3.66
C1CC2CCCN2C1	11.7
C[NH+](C)CCCNc1c([N+](=O)[O-])cnc2ccccc12	4.43
Cc1cnc2c(c1)c(C)c(C)c1cccnc12	5.34
Cc1cc([C@@H](N)CO)c(O)c([C@@H](N)CO)c1	9
Nc1nc(N)nc([O-])n1	9.4
Nc1ccc(C(=O)O)cc1	2.41
Cc1nc(N)c2ncsc2n1	4.56
c1ccc(CN(CC2CO2)CC2CO2)cc1 (stereo unspecified)	5.75
C[NH+](C)CCCCN1C=Nc2cccc3cccc1c23	5.3
N[C@@H]1C[C@@H]1[NH3+]	4.2
CC1CCCN1C (stereo unspecified)	10.2

Compound	pKa
O=C(CCN1CCOCC1)c1cccc([N+](=O)[O-])c1	6.5
O=[N+]([O-])c1ccc(-n2nnnc2/C=C/c2ccc(Cl)cc2)cc1	-3.05
Cc1ccncn1	1.99
NCCCCc1ccccn1	10.3
c1cncc(-c2ccncc2)c1	4.85
O=Cc1ccc(-c2ncc(-c3ccccc3)o2)cc1	0.02
Cc1ccccn1	5.98
Cc1cccc(Cl)c1/C(=N/CCC[NH+](C)C)c1ccccc1	3.26
Fc1ccccn1	-0.44
CCCCCCN(CCO)CC(O)CC (stereo unspecified)	9.1
Cn1cccc1-c1cccnc1	4.73
CC(=O)Nc1ccccn1	4.09
CC1=CCCCN1C	11.4
COc1ccc(Nc2ccc(N)cc2)cc1	5.9
C[C@H]1CN[C@@H](C)CN1	9.98
C[n+]1ccc(NN)c2ccccc21	2.61
COc1ccc(Nc2ccccc2)cc1	1.38
COc1nc(N)c2[nH]cnc2n1	3.7
CNC(=O)/C=C(\c1ccc2nc(N)n(C3CCCC3)c2c1)c1ccccc1F	6.7
CN(C)CCN	9.53
Cc1ccc(NC(C)(C)C)cc1	7.3
Cc1ccc2ccc3ccc(C)nc3c2n1	6.15
Nc1nc(N(CCO)CCO)nc(N(CCO)CCO)n1	5.15
O=C([O-])/C=C/c1c[nH]cn1	5.85
CC(C)(C)c1cc(N)cc(C(C)(C)C)c1	4.97

Compound	pKa
Cc1nccc2c1[nH]c1ccc([N+](=O)[O-])cc12	6.24
OCCc1ccccn1	5.37
Nc1nc2ccccc2o1	3.73
CN(C)c1ccc2nc3ccc(N)cc3nc2c1	6.6
COc1ccc2c(c1OC(C)=O)[C@]13CCN(C)[C@H](C2)[C@@H]1CC[C@H](OC)C3	9.31
Cc1cc(C(c2ccc(N)cc2)c2ccc([NH3+])cc2)ccc1[NH3+]	2.6
Cc1ccccc1C(=NCCCCN(C)C)c1ccccc1C	8.8
COc1cc(S(C)=O)ccc1-c1nc2ncc(N)cc2[nH]1 (stereo unspecified)	3.9
CN(C1=NCCCO1)c1ccccc1	10.7
CCN(CC)CC#N	4.18
c1ccc(Oc2ccncc2)cc1	6.16
NCCC(=O)N[C@@H](Cc1c[nH]cn1)C(=O)[O-]	9.61
C[n+]1ccc(-c2nc3ccccc3[nH]2)cc1	2.26
Cc1ccc(NCC[NH2+]c2ccc(C)cc2)cc1	2.7
NCc1ccc(N)cc1	10
NCc1ccccc1[N+](=O)[O-]	8.59
Cc1c(N)ccc2c1-c1c(ccc3ccccc13)C2	4.49
COc1ccc(C(=O)S)cc1	-4.9
N#CC(C#N)=NNc1ccccc1C(=O)O	-0.96
Cc1[nH]cnc1CSCCNC(=[NH2+])NCCCc1c[nH]cn1	7.26
[NH3+]CCC(=O)NC(Cc1c[nH]cn1)C(=O)[O-] (stereo unspecified)	7.08
Cc1ncc(CO)c(C)c1OCc1ccccc1	5.52
